Consider 7 compounds from article PMC7856678 (Bioorganic & medicinal chemistry, 2021).

Each structure is given as a SMILES string.

For one data set, the system named is TZM-bl/H9-HIV-1IIIB. Kind of data set: Cell-to-Cell HIV-1 transmission, CXCR4-tropic assay. It counts as cell-based. The following applies: Human immunodeficiency virus 1, TZM-bl.
The subject of the next data set is TZM-bl/Molt-HIV-1ADA. Kind of data set: Cell-to-Cell HIV-1 transmission, CCR5-tropic assay. It counts as cell-based. The conditions noted are these: Human immunodeficiency virus 1, TZM-bl.
Data set [1] is described as follows: Cytotoxicity. It counts as cell-based. The conditions noted are these: human, TZM-bl cells.
The next data set relates to VSV-G pseudovirus. Kind of data set: microbe, parasite or virus in culture. It counts as cell-based.
A short description of data set [2]: Cytotoxicity. The conditions noted are these: human, U87-CD4-CXCR4 cells. It counts as cell-based.
Data set [3] in a line: Solubility of compounds for antiviral/cytotoxicity testing. It counts as physicochemical. The conditions noted are these: assays could not be performed.
For a further data set, the system named is TZM-bl cells. The following applies: cited from earlier work.
For a further data set, the system named is U87-CD4-CXCR4 cells. The following applies: cells of VSV-G assay; cited from earlier work.

The term IC50 denotes the concentration needed to halve the response being measured. Read a low IC50 as inhibition by little substance. In general, CC50 refers to the concentration that lowers cell viability or growth by half.

For `COc1cnc(-n2cnc(C)n2)c2[nH]cc(C(=O)C(=O)N3CCN(C(=O)c4ccccc4)CC3)c12` [BMS-626529], the IC50 was 0.02 ± 0.005 µM with TZM-bl/H9-HIV-1IIIB and about 0.2 µM with TZM-bl/Molt-HIV-1ADA. Consider `N#Cc1ccc(-c2ccc(C(=O)N[C@@H](CN)c3nc(CO)cs3)[nH]2)cc1` [Compound 4, N-(2-Amino-1-(4-(hydroxymethyl)thiazol-2-yl)ethyl)-5-(4-cyanophenyl)-1H-pyrrole-2-carboxamide], for which the CC50 at 3 days in “Cytotoxicity [1]” is over 82 µM. `NC[C@H](NC(=O)c1ccc(-c2cc(F)c(Cl)c(F)c2)[nH]1)c1nc(CCO)cs1` [Compound 9, N-(2-Amino-1-(4-(2-hydroxyethyl)thiazol-2-yl)ethyl)-5-(4-chloro-3,5-difluorophenyl)-1H-pyrrole-2-carboxamide]: the CC50 at 72 h in the data set “Cytotoxicity [1]” came to 32.8 ± 1 µM. Turning to `NC[C@H](NC(=O)c1ccc(-c2ccc(C(F)(F)F)cc2F)[nH]1)c1nc(CCO)cs1` [Compound 13, N-(2-Amino-1-(4-(2-hydroxyethyl)thiazol-2-yl)ethyl)-5-(2-fluoro-4-(trifluoromethyl)phenyl)-1H-pyrrole-2-carboxamide], the IC50 with VSV-G pseudovirus came out at 11.9 ± 0.5 µM. The CC50 at 3 days in “Cytotoxicity [2]” stood at 33.5 ± 0.6 µM. In the case of `NC[C@H](NC(=O)c1ccc(-c2ccc(C(F)(F)F)c(F)c2)[nH]1)c1nc(C(=O)O)cs1` [Compound 21, 2-[2-Amino-1-[[5-[3-fluoro-4-(trifluoromethyl)phenyl]-1H-pyrrole-2-carbonyl]amino]ethyl]thiazole-4-carboxylic acid], in data set [3], the “Solubility” value is “Not soluble”. Consider `NC[C@@H](NC(=O)c1ccc(-c2ccc(C(F)(F)F)c(F)c2)[nH]1)c1nc(C(=O)O)cs1` [Compound 22, 2-[2-Amino-1-[[5-[3-fluoro-4-(trifluoromethyl)phenyl]-1H-pyrrole-2-carbonyl]amino]ethyl]thiazole-4-carboxylic acid], for which the “Solubility” value in data set [3] was “Not soluble”. Take `NC[C@@H](NC(=O)c1ccc(-c2ccc(C(F)(F)F)cc2)[nH]1)c1ncc(CO)s1` [NBD-14136]: the figures for the 50% cytotoxic concentration (CC50) with TZM-bl cells and in the data set on U87-CD4-CXCR4 cells were 42.4 ± 1 µM and 46.3 ± 10.6 µM, respectively.
